Test results taken from patent US20140341837A1, “Ferrate and Povidone Iodine (PI) Composition” (Biolife, L.L.C., priority 2010, published 2014).

Columns and labels:
[1] = cited from earlier work
[2] = stability of PI in the dry powder; assay type: physicochemical; details: very dry environment of the powder
Excerpt: The PI is stable in this very dry environment.

[3] = standard hemostasis strength device; details: povidone iodine at 10%
Description: A mixture of various iron sources, chelation compounds, and active antimicrobials was tested using the recovered biofilm from WU according to the matrix in Table III.
Each mixture was tested in a standard hemostasis strength device described in detail in FDA 510k filing, K080210, incorporated herein in its entirety, and in the standardized 96 unit biofilm eradication test device also described in the 510k filing. The results were indexed* to #12, the ferrate/resin/10% PI powder.

[4] = on dilution; cited from earlier work

PVP-Iodine [PI]
efficacy at concentrations of 5-10% PI ([1]; 5-10% PI): ineffective | I2 concentration of non-effective kill ([1]; pamphlet FIG. 2): < 0.001% | stability of PI [2]: stable | effect of PI addition on hemostatic efficiency [3]: does not affect the hemostatic efficiency | solution strength at maximum content of uncomplexed iodine [4]: 0.1%
